Patent US10364263B2, “Cyclic phosphates and cyclic phosphoramidates for the treatment of neurologic disorders” (Retrophin, Inc., priority 2015, dated 2019)
Read-outs that look alike come from different tables or passages of the source.

Experiments:
[1] = Stability in human plasma; type: in vitro ADME; conditions: human, plasma, 37° C.
In short: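 Test compound at 3 μM (0.1% DMSO) was incubated in mouse or human plasma at 37 °C and sampled in duplicate at 0, 10, 20, 30, 40 and 60 min. Reactions were stopped with acetonitrile/formic acid containing internal standard. Remaining parent was measured by UPLC-MS/MS without a calibration curve.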

[2] = Stability in human hepatocytes; type: in vitro ADME; conditions: t1/2, Human Hepatocytes
[3] = Stability in mouse hepatocytes; type: in vitro ADME; conditions: t1/2, Mouse Hepatocytes
[4] = Permeability in porcine brain endothelial cell blood-brain barrier model; type: in vitro ADME; conditions: pig (endothelial cells), co-cultured with rat astrocytes, pH 7.4, PBECs/As blood-brain barrier model, luminal to basal
Excerpt: Compounds disclosed herein show the potential to reach mammalian brain by crossing the blood-brain barrier (BBB) from systemic circulation. […] The porcine brain endothelial cell permeability assay is an in vitro BBB model to be used for the prediction of central nervous system (CNS) drug permeability in vivo and for ranking or prioritization of compounds according to their permeability. This system can also be used for mechanistic studies and drug delivery strategies via receptor-mediated transport (transcytosis). The system is a two-dimensional co-culture, non-contact model of two types of primary cells: primary brain endothelial cells obtained from fresh porcine brains, and primary rat astrocytes, obtained from neonatal rats. This ensures barrier formation and functional expression of key transporters.
The endothelial cells were cultured on rat-tail collagen type I and human fibronectin coated Transwell polycarbonate inserts (surface area 0.7 cm^2; pore size 0.4 μm) and the inserts were placed in 24-well plates containing confluent rat astrocytes. This system allows for the formation of a differentiated BBB model suitable for compound permeability in 10 days.
On the day of the experiment, culture medium was removed and cells were pre-incubated for 30 min with HBSS containing 20 mM Hepes pH 7.4 and 0.1% BSA. Donor volume (apical) was 400 μl and receiver volume (basal) 900 μl. Compounds were diluted in assay medium (at the desired concentration) and added to the luminal side (to mimic blood to brain passage). Transport was measured usually after 60 min by detecting the amount of compound from the basal (brain side). The integrity of the cell layers was assessed by measuring the transendothelial electrical resistance (TEER) and by monitoring FITC-dextran (40 KDa) permeation. Inserts with TEER values […] were selected for permeability studies. As FITC-dextran cannot freely permeate lipophilic barriers, a high degree of FITC-dextran transport indicates poor integrity of the cell layer and wells with high FITC-dextran permeability were excluded. FITC-dextran was included as internal control in each insert used for permeability studies. Fluorescence was measured using a fluorimetric detector. Radioactivity was measured by scintillation counting. For LC-MS/MS analysis, aliquots (200 μl) from the basal compartment were diluted with an equal volume of 100% acetonitrile containing 0.1% formic acid, centrifuged to remove cell debris, and evaporated under N2. After reconstitution, samples were analyzed by LC-MS/MS. Mass balance was determined considering the amount of compound recovered in the donor and receiver chamber at the end of the assay relative to the amount added to the donor chamber at time 0.
Permeability was defined as the apparent permeability coefficient (Papp), which is a measure of the appearance rate of the compound in the receiver chamber, expressed in cm/s. Papp is calculated according the following equation: Papp[cm/sec]=Vd*ΔMr/A*Md*Δt, Equation 2: where
Vd=volume in the donor compartment in cm^3 or mL;
ΔMr=total amount of compound in the receiver compartment after t seconds;
Md=donor amount (added at time 0)
Δt=time measured in seconds
A=filter area in cm^2 (for 24 well plate, A=0.7 cm^2).
To correct for the contribution of filter and substrate, Papp was also determined for the cell-free system. Permeability of the endothelial cell layer was determined using the following equation: […], Equation 3: where
Ptotal=the P of the total system,
Pf=P for the cell-free filter, and
Pe=P for the endothelial cell layer alone. In this equation, the total resistance of the system towards passage of a substance is additively composed of two […] resistances: that of the cell monolayer and that of the filter.

[5] = Chemical stability in aqueous solution (phosphate buffered saline, NMR)
Protocol: To measure chemical stability in aqueous solution, the half-life (t1/2), or time needed for the concentration to decrease by half, was determined for select compounds in phosphate buffered saline solution. Compounds were dissolved in a solution containing 10 mM phosphate buffer (pH 7.5) and 5% of D2O to a final concentration of −1 mM. All spectra were obtained at 37° C. on a Bruker Avance 600 NMR spectrometer equipped with an inverse broad-band probe with z-gradients. Data were obtained every 15 min for a total time period of 4 h or longer, according to the observed stability. ^31P NMR was performed at 242.55 MHz, with gated decoupling of the protons. An observation frequency range of 14619.9 Hz and 32 K complex data points were used for acquisition. A pulse angle of 90° and a 4-sec pulse cycle were utilized. Thirty-two accumulations were obtained before Fourier transformation of the free induction decay. ^1H NMR spectra were acquired using the 1DNOESY experiment with water presaturation for better solvent suppression. An observation frequency range of 12019.23 Hz, a 10-sec pulse cycle, and 32 K complex data points were used for acquisition. Sixty-four scans were added prior to Fourier transformation. Integral data were obtained using the TopSpin software.
Stability was determined based on analysis of disappearance of the compounds as a function of incubation time. Quantification of test compounds was measured as a peak area relative to an internal standard. The elimination constant, k, was calculated by plotting mean disappearance values on a semi-logarithmic scale and fitting with a best fit linear regression. The half-life (t1/2) expressed in hours was derived using Equation 1: t1/2=ln2/(−k). Equation 1:

[6] = Diastereoisomer A (upfield shift in 31P NMR), read-out: t1/2, Human Plasma, Diastereoisomer A (converted)
[7] = Diastereoisomer B, read-out: t1/2, Human Plasma, Diastereoisomer B (converted)
[8] = Diastereoisomer A, read-out: Papp Diastereoisomer A
[9] = Diastereoisomer B, read-out: Papp Diastereoisomer B
[10] = pH 7.5, t1/2 (h) Diastereoisomer A, 10 mM phosphate buffer pH 7.5, 37° C., Diastereoisomer A = upfield shift in the 31P NMR
[11] = pH 7.5, t1/2 (h) Diastereoisomer B, 10 mM phosphate buffer pH 7.5, 37° C., Diastereoisomer B

Row | half-life at 3 µM [1, 6] [min] | half-life at 3 µM [1, 7] [min] | half-life at 5 µM ([2]; Diastereoisomer A) [min] | half-life at 5 µM ([2]; Diastereoisomer B) [min] | half-life at 5 µM ([3]; Diastereoisomer A) [min] | half-life at 5 µM ([3]; Diastereoisomer B) [min] | Papp A→B at 60 min [4, 8] [×10⁻⁶ cm/s] | Papp A→B at 60 min [4, 9] [×10⁻⁶ cm/s] | half-life at 1 mM ([5]; pH 7.5, half-lives, phosphate buffered saline solution, both diastereoisomers) [h] | half-life at 1 mM [5, 10] [h] | half-life at 1 mM [5, 11] [h] | Structure (SMILES)
1 | > 60 | 57.6 | < 15 | < 15 | < 15 | < 15 | 10.1 | 14.5 | – | – | – | CCc1cc(C(=O)OCOP2(=O)OCC(C)(C)[C@H](C(=O)NCCC(=O)OC)O2)n(C)n1 (stereo partly drawn) [Compound No. 84, (((4R)-4-((3-methoxy-3-oxopropyl)carbamoyl)-5,5-dimethyl-2-oxido-1,3,2-dioxaphosphinan-2-yl)oxy)methyl 3-ethyl-1-methyl-1H-pyrazole-5-carboxylate]
2 | > 60 | – | 67.2 | – | 18 | – | 0.45 | – | – | – | – | CC(C)(C)C(=O)OCO[P@@]1(=O)OCC(C)(C)[C@H](C(=O)NCCC(=O)O)O1 [Compound No. 91, 3-((2S,4R)-5,5-dimethyl-2-oxido-2-((pivaloyloxy)methoxy)-1,3,2-dioxaphosphinane-4-carboxamido)propanoic acid]
3 | > 60 | > 60 | < 15 | < 15 | < 15 | < 15 | 9.99 | 8.47 | – | > 80 | > 80 | COC(=O)CCNC(=O)[C@@H]1OP(=O)(N[C@@H](C)C(=O)OCc2cc(C)cc(C)c2)OCC1(C)C (stereo partly drawn) [compound 3, (2S)-3,5-dimethylbenzyl 2-(((4R)-4-((3-methoxy-3-oxopropyl)carbamoyl)-5,5-dimethyl-2-oxido-1,3,2-dioxaphosphinan-2-yl)amino)propanoate]
4 | – | – | < 15 | < 15 | < 15 | < 15 | 10.1 | 14 | – | – | – | COC(=O)CCNC(=O)[C@@H]1OP(=O)(N[C@@H](Cc2ccccc2)C(=O)OCc2ccccc2)OCC1(C)C (stereo partly drawn) [compound 10, benzyl ((4R)-4-((3-methoxy-3-oxopropyl)carbamoyl)-5,5-dimethyl-2-oxido-1,3,2-dioxaphosphinan-2-yl)-L-phenylalaninate]
5 | 15.6 | 49.2 | > 240 | 191 | < 15 | < 15 | 0.54 | 0.6 | – | – | – | COC(=O)CCNC(=O)[C@@H]1OP(=O)(N[C@@H](C)C(=O)OCc2cccnc2)OCC1(C)C (stereo partly drawn) [compound 24, methyl 3-((4R)-5,5-dimethyl-2-oxido-2-(((S)-1-oxo-1-(pyridin-3-ylmethoxy)propan-2-yl)amino)-1,3,2-dioxaphosphinane-4-carboxamido)propanoate]
6 | > 60 | > 60 | 18.6 | < 15 | < 15 | < 15 | 1.95 | 2.9 | – | – | – | COC(=O)CCNC(=O)[C@@H]1OP(=O)(NCCC(=O)OCc2ccccc2)OCC1(C)C (stereo partly drawn) [compound 117, benzyl 3-(((4R)-4-((3-methoxy-3-oxopropyl)carbamoyl)-5,5-dimethyl-2-oxido-1,3,2-dioxaphosphinan-2-yl)amino)propanoate]

Continued, compound first:

Row | Structure (SMILES) | half-life at 3 µM [1, 6] [min] | half-life at 3 µM [1, 7] [min] | half-life at 5 µM ([2]; Diastereoisomer A) [min] | half-life at 5 µM ([2]; Diastereoisomer B) [min] | half-life at 5 µM ([3]; Diastereoisomer A) [min] | half-life at 5 µM ([3]; Diastereoisomer B) [min] | Papp A→B at 60 min [4, 8] [×10⁻⁶ cm/s] | Papp A→B at 60 min [4, 9] [×10⁻⁶ cm/s] | half-life at 1 mM ([5]; pH 7.5, half-lives, phosphate buffered saline solution, both diastereoisomers) [h] | half-life at 1 mM [5, 10] [h] | half-life at 1 mM [5, 11] [h]
7 | COC(=O)CCNC(=O)[C@@H]1OP(=O)(N[C@@H](C)C(=O)OCCc2ccccc2)OCC1(C)C (stereo partly drawn) [Compound No. 2, Methyl 3-((4R)-5,5-dimethyl-2-oxido-2-(((S)-1-oxo-1-phenethoxypropan-2-yl)amino)-1,3,2-dioxaphosphinane-4-carboxamido)propanoate] | 57 | 54 | < 15 | < 15 | 23.4 | 26.4 | 3.35 | 2.61 | – | – | –
8 | COC(=O)CCNC(=O)[C@@H]1OP(=O)(OCCSC(=O)C(C)(C)C)OCC1(C)C (stereo partly drawn) [Compound No. 2-133, Methyl 3-((4R)-5,5-dimethyl-2-oxido-2-(2-(pivaloylthio)ethoxy)-1,3,2-dioxaphosphinane-4-carboxamido)propanoate] | – | – | < 15 | < 15 | < 15 | < 15 | 21.1 | 21 | – | – | –
9 | COC(=O)CCNC(=O)[C@@H]1OP(=O)(N[C@@H](C)C(=O)OCc2ccccc2)OCC1(C)C (stereo partly drawn) [Compound No. 11, Benzyl ((4R)-4-((3-methoxy-3-oxopropyl)carbamoyl)-5,5-dimethyl-2-oxido-1,3,2-dioxaphosphinan-2-yl)-L-alaninate] | – | – | 27.6 | < 15 | < 15 | < 15 | 3.52 | 3.12 | > 60 | > 100 | > 60
10 | COC(=O)CCNC(=O)[C@@H]1OP(=O)(OCOC(=O)c2ccccc2)OCC1(C)C (stereo partly drawn) [Compound No. 64, (((4R)-4-((3-methoxy-3-oxopropyl)carbamoyl)-5,5-dimethyl-2-oxido-1,3,2-dioxaphosphinan-2-yl)oxy)methyl benzoate] | < 9.6 | < 9.6 | < 15 | < 15 | < 15 | < 15 | 16 | 20.7 | – | 87 | 13
11 | COC(=O)CCNC(=O)[C@@H]1OP(=O)(OCOC(=O)C(C)(C)C)OCC1(C)C (stereo partly drawn) [Compound No. 65, (((4R)-4-((3-methoxy-3-oxopropyl)carbamoyl)-5,5-dimethyl-2-oxido-1,3,2-dioxaphosphinan-2-yl)oxy)methyl pivalate] | > 60 | < 9.6 | < 15 | < 15 | < 15 | < 15 | 20.3 | 18.3 | – | 40.5 | 7.2
12 | COC(=O)CCNC(=O)[C@@H]1OP(=O)(OCOC(=O)OC(C)C)OCC1(C)C (stereo partly drawn) [Compound No. 69, Methyl 3-((4R)-2-(((isopropoxycarbonyl)oxy)methoxy)-5,5-dimethyl-2-oxido-1,3,2-dioxaphosphinane-4-carboxamido)propanoate] | > 60 | < 9.6 | < 15 | < 15 | < 15 | < 15 | 22.8 | 29.9 | – | – | –
13 | COC(=O)CCNC(=O)[C@@H]1OP(=O)(OCOC(=O)c2cncs2)OCC1(C)C (stereo partly drawn) [Compound No. 70, (((4R)-4-((3-methoxy-3-oxopropyl)carbamoyl)-5,5-dimethyl-2-oxido-1,3,2-dioxaphosphinan-2-yl)oxy)methyl thiazole-5-carboxylate] | < 9.6 | < 9.6 | – | – | – | – | 1.58 | 2.56 | – | – | –
